Patent US12559474B2, “Triazine derivatives having virus replication inhibitory activity and pharmaceutical composition comprising the same” (priority 2021, dated 2026)
Where two headings read alike, the source gives them in different places.

Experiments:
[1] = biological target: SARS-CoV-2 3CL protease (Severe acute respiratory syndrome coronavirus 2, UniProt P0DTD1); experiment: biochemical; conditions: 50% SARS-CoV-2 3CL protease inhibitory concentration, read-out: IC50
[2] = system: SARS-CoV-2; experiment: microbe, parasite or virus in culture; assay type: cell-based; conditions: Severe acute respiratory syndrome coronavirus 2, VeroE6/TMPRSS2, 72 h, 50% SARS-CoV-2 infected cell death inhibitory concentration, VeroE6/TMPRSS2 cells, 3 days culture

## Cc1cncc(-n2c(=O)nc(Nc3cc4cn(C5CCOCC5)nc4cc3Cl)n(Cc3ccc(F)c(C#N)c3)c2=O)c1 [II-0096]
[1]; given as class symbols
  IC50: < 100 nM
[2]; class symbols
  EC50: < 1000 nM

## Cn1cnc(Cn2c(=O)nc(Nc3cc4cn(C)nc4cc3Br)n(Cc3cc(F)c(F)c(F)c3)c2=O)n1 [II-0448]
[1]; given as class symbols
  IC50: < 100 nM
[2]; class symbols
  EC50: < 1000 nM

## Cc1cncc(-n2c(=O)nc(Nc3cc4cn(C[C@H](C)O)nc4cc3Cl)n(Cc3cc(F)c(F)cc3F)c2=O)c1 [II-0100]
[1]; given as class symbols
  IC50: < 100 nM
[2]; class symbols
  EC50: < 1000 nM

## O=c1[nH]cccc1Cn1c(=O)nc(Nc2cc3c(cc2Cl)OCCC3)n(Cc2cc(F)c(F)c(F)c2)c1=O [Compound I-0372]
[1]; given as class symbols
  IC50: < 100 nM
[2]; class symbols
  EC50: < 1000 nM

## Cn1cnc(Cn2c(=O)nc(Nc3cc4cn(Cc5ccccn5)nc4cc3Cl)n(Cc3cc(F)c(F)c(Cl)c3)c2=O)n1 [II-0006]
[1]; given as class symbols
  IC50: < 100 nM
[2]; class symbols
  EC50: 1000 to 10000 nM

## Cc1cncc(-n2c(=O)nc(Nc3ccc4nn(C(F)F)cc4c3)n(Cc3ccc(F)c(C#N)c3)c2=O)c1 [II-0320]
[1]; given as class symbols
  IC50: < 100 nM
[2]; class symbols
  EC50: < 1000 nM

## COc1ccc(Nc2nc(=O)n(Cc3ccc(C)[nH]c3=O)c(=O)n2Cc2cc(F)c(F)c(F)c2)cc1 [Compound I-0358]
[1]; given as class symbols
  IC50: 100 to 1000 nM
[1]; RapidFire MS
  IC50: 120 nM
[2]; CellTiter-Glo 2.0
  EC50: 7450 nM

## Cn1cnc(Cn2c(=O)nc(Nc3cc4sc(NCC5CC5)nc4cc3Cl)n(Cc3cc(F)c(F)cc3F)c2=O)n1 [II-0082]
[1]; given as class symbols
  IC50: < 100 nM
[2]; class symbols
  EC50: 1000 to 10000 nM

## CCNc1nc2cc(Cl)c(Nc3nc(=O)n(Cc4ncn(C)n4)c(=O)n3Cc3cc(F)c(F)cc3F)cc2s1 [II-0339]
[1]; given as class symbols
  IC50: < 100 nM
[2]; class symbols
  EC50: < 1000 nM

## Cc1cncc(-n2c(=O)nc(Nc3cc4cn(C)nc4cc3Cl)n(Cc3cc(C#N)ccc3CCC(C)(C)O)c2=O)c1 [II-0024]
[1]; given as class symbols
  IC50: < 100 nM
[2]; class symbols
  EC50: 1000 to 10000 nM

## Cn1cc2cc(Nc3nc(=O)n(-c4cncc5ccccc45)c(=O)n3Cc3cc(F)c(F)c(C#N)c3)ccc2n1 [II-0154]
[1]; given as class symbols
  IC50: < 100 nM
[2]; class symbols
  EC50: < 1000 nM

## Cc1cncc(-n2c(=O)nc(Nc3cc4cn(C)nc4cc3Cl)n(Cc3cc(C#N)ccc3[N+](=O)[O-])c2=O)c1 [II-0580]
[1]; given as class symbols
  IC50: < 100 nM
[2]; class symbols
  EC50: < 1000 nM

## Cc1cncc(-n2c(=O)nc(Nc3cc4cn(C)nc4cc3Cl)n(Cc3cc(C#N)c(F)cn3)c2=O)c1 [II-0535]
[1]; given as class symbols
  IC50: < 100 nM
[2]; class symbols
  EC50: < 1000 nM

## Cc1cncc(-n2c(=O)nc(Nc3cc4cn(CC(F)F)nc4cc3Cl)n(Cc3cc(C#N)c(F)cn3)c2=O)c1 [II-0533]
[1]; given as class symbols
  IC50: < 100 nM
[2]; class symbols
  EC50: 1000 to 10000 nM

## CNC(=O)Cn1cc2cc(Nc3nc(=O)n(Cc4ccc[nH]c4=O)c(=O)n3Cc3cc(F)c(F)c(F)c3)c(Cl)cc2n1 [Compound I-0368]
[1]; given as class symbols
  IC50: < 100 nM
[2]; class symbols
  EC50: 1000 to 10000 nM

## O=C1CC=CC=C1Cn1c(=O)nc(Nc2cc3cn(C4CCOCC4)nc3cc2Cl)n(Cc2cc(F)c(F)c(F)c2)c1=O [Compound I-0451]
[1]; given as class symbols
  IC50: < 100 nM
[2]; class symbols
  EC50: 1000 to 10000 nM

## CNc1cncc(-n2c(=O)nc(Nc3cc4cn(C)nc4cc3Cl)n(Cc3cc(Cl)c(F)cc3F)c2=O)c1 [II-0599]
[1]; given as class symbols
  IC50: < 100 nM
[2]; class symbols
  EC50: < 1000 nM

## CC(C)Nc1nc2cc(Cl)c(Nc3nc(=O)n(Cc4ccc[nH]c4=O)c(=O)n3Cc3cc(F)c(F)c(F)c3)cc2s1 [II-0413]
[1]; given as class symbols
  IC50: < 100 nM
[2]; class symbols
  EC50: 1000 to 10000 nM

## Cc1cncc(-n2c(=O)nc(Nc3cc4c(cc3Cl)nc(C)n4C)n(Cc3cc(F)c(F)c(F)c3)c2=O)c1 [II-0356]
[1]; given as class symbols
  IC50: < 100 nM
[2]; class symbols
  EC50: 1000 to 10000 nM

## Cc1cncc(-n2c(=O)nc(Nc3cc4cn(C)nc4cc3Cl)n(Cc3cc(F)c(F)cc3C#N)c2=O)c1 [II-0070]
[1]; given as class symbols
  IC50: < 100 nM
[2]; class symbols
  EC50: 1000 to 10000 nM

## Cn1cc2cc(Nc3nc(=O)n(Cc4ncccn4)c(=O)n3Cc3cc(Cl)c(F)cc3F)c(Cl)cc2n1 [II-0242]
[1]; given as class symbols
  IC50: < 100 nM
[2]; class symbols
  EC50: < 1000 nM

## Cc1cc(F)c(Cl)cc1Cn1c(Nc2cc3cn(C)nc3cc2Cl)nc(=O)n(Cc2ncn(C)n2)c1=O [II-0044]
[1]; given as class symbols
  IC50: < 100 nM
[2]; class symbols
  EC50: < 1000 nM

## Cc1cncc(-n2c(=O)nc(Nc3ccc4nn(CC(F)F)cc4c3)n(Cc3cc(C#N)c(F)cc3C)c2=O)c1 [II-0278]
[1]; RapidFire MS
  IC50: 3.1 nM
[2]; CellTiter-Glo 2.0
  EC50: 170 nM

## Cn1cnc(Cn2c(=O)nc(Nc3cc4cn(C)nc4cc3Cl)n(Cc3cc(Cl)c(F)c(Cl)c3)c2=O)n1 [II-0584]
[1]; RapidFire MS
  IC50: 4.8 nM
[2]; CellTiter-Glo 2.0
  EC50: 750 nM

## Cc1cc(F)cc(Cn2c(Nc3cc4cn(C)nc4cc3Cl)nc(=O)n(-c3cncc(C)c3)c2=O)c1 [II-0212]
[1]; given as class symbols
  IC50: < 100 nM
[2]; class symbols
  EC50: < 1000 nM

## Cn1cnc(Cn2c(=O)nc(Nc3cc4cn(CC(F)F)nc4cc3F)n(Cc3cc(Cl)c(F)cc3F)c2=O)n1 [II-0459]
[1]; given as class symbols
  IC50: < 100 nM
[2]; class symbols
  EC50: 1000 to 10000 nM

## O=c1[nH]cccc1Cn1c(=O)nc(Nc2cc3cn(CC4(O)CCC4)nc3cc2Cl)n(Cc2cc(F)c(F)c(F)c2)c1=O [Compound I-0423]
[1]; given as class symbols
  IC50: < 100 nM
[2]; class symbols
  EC50: 1000 to 10000 nM

## COc1ccc(Nc2nc(=O)n(-c3cncc(C)c3)c(=O)n2-c2cccc(Cl)c2)cc1 [II-0492]
[1]; RapidFire MS
  IC50: 1000 nM
[2]; class symbols
  EC50: < 1000 nM

## Cc1cncc(-n2c(=O)nc(Nc3ccc4nc(C)n(C)c4c3)n(Cc3ccc(F)c(C#N)c3)c2=O)c1 [II-0354]
[1]; given as class symbols
  IC50: < 100 nM
[2]; class symbols
  EC50: 1000 to 10000 nM

## Cc1cncc(-n2c(=O)nc(Nc3cc4c(C)n(C)nc4cc3Cl)n(Cc3ccc(F)c(C#N)c3)c2=O)c1 [II-0436]
[1]; given as class symbols
  IC50: < 100 nM
[2]; class symbols
  EC50: < 1000 nM

## CNc1nc2cc(Cl)c(Nc3nc(=O)n(-c4cncc(C)c4)c(=O)n3Cc3ccc(F)c(C#N)c3)cc2o1 [II-0512]
[1]; given as class symbols
  IC50: < 100 nM
[2]; class symbols
  EC50: 1000 to 10000 nM
